Each structure is given as a SMILES string.

One series has as its system NCI-H226. The series is described as follows: cells. The conditions noted are these: Homo sapiens, NCI-H226, 48 h; for CC50: read-out: LC50.
A further series relates to KM12. The series is described as follows: cells. The conditions noted are these: Homo sapiens, KM12, 48 h; for CC50: read-out: LC50.
For a further series, the system named is U251. The experiment in a line: cells. As to conditions: Homo sapiens, U-251, 48 h; for CC50: read-out: LC50.
For a further series, the system named is UO-31. The experiment in a line: cells. The conditions noted are these: Homo sapiens, UO-31, 48 h; for CC50: read-out: LC50.
The test system of the next series is SR. The experiment in a line: cells. The conditions noted are these: Homo sapiens, 48 h.
A further series concerns NCI-H460. The series is described as follows: cells. The conditions noted are these: Homo sapiens, NCI-H460, 48 h.
For a further series, the system named is K-562. The series is described as follows: cells. The conditions noted are these: Homo sapiens, K562, 48 h; for CC50: read-out: LC50.
The subject of another series is HS578T. The series is described as follows: cells. As to conditions: Homo sapiens, Hs-578T, 48 h.
A further series concerns MALME-3M. The series is described as follows: cells. The conditions noted are these: Homo sapiens, 48 h; for CC50: read-out: LC50.
In the next series the test system is MDA-MB-435. The series is described as follows: cells. As to conditions: Homo sapiens, MDA-MB-435, 48 h; for CC50: read-out: LC50.
The subject of another series is HOP-62. The experiment in a line: cells. As to conditions: Homo sapiens, HOP-62, 48 h; for CC50: read-out: LC50.
A further series relates to SN12C. The experiment in a line: cells. As to conditions: Homo sapiens, 48 h; for CC50: read-out: LC50.
For the next series, the system named is CAKI-1. The series is described as follows: NCI 60 cell lines, SRB assay: CAKI-1. It is filed as cell-based, human. The conditions noted are these: CAKI-1 (Renal Cancer), 48 hours. How it is done:
The human tumor cell lines were grown in RPMI 1640 medium containing 5% fetal bovine serum (FBS) and 2 mM L-glutamine. The cells were inoculated into 96 well microtiter plates in 100 μL volumes at plating densities ranging from 5000 to 40000 cells/well depending on the doubling time of each individual cell line. After cell inoculation, the microtiter plates were incubated at 37° C., 5% CO2, 95% air, and 100% relative humidity for 24 hours prior to addition of the test compound. The following day, two plates of each cell line were fixed in situ with TCA to represent a measurement of cell population for each cell line at the time of sample addition (Tz). Each of the test compounds was dissolved in dimethyl sulfoxide at 400-times the desired final maximum test concentration, and the resulting solutions were stored frozen prior to use. At the time of sample addition, an aliquot of frozen concentrate was thawed and diluted to twice the desired final maximum test concentration with complete medium containing 50 μg/mL gentamicin. Additional four 10-fold serial dilutions were prepared to provide a total of five sample concentrations plus control. Aliquots of 100 μL of these different concentrations were added to the appropriate microtiter wells already containing 100 μL of medium, making up the required final sample concentrations. […] Bound stain was subsequently solubilized with 10 mM trizma base, and the absorbance was read on an automated plate reader at a wavelength of 515 nm. […] Using the seven absorbance measurements [time zero (Tz), control growth (C), and test growth in the presence of drug at the five concentration levels (Ti)], the percentage growth was calculated at each of the sample concentration levels. […] The test compound concentration resulting in total growth inhibition was calculated from Ti=Tz. […] In the event when the effect was not reached or was exceeded, the value for the respective parameter was expressed as greater or less than the maximum or minimum concentration tested.
Background: In SRB staining, fixed cells bind dye roughly in proportion to their protein.

In another series the test system is RXF 393. The series is described as follows: cells. As to conditions: Homo sapiens, RXF 393, 48 h.
Another series concerns SK-MEL-2. The series is described as follows: cells. As to conditions: Homo sapiens, SK-MEL-2, 48 h.
Another series deals with PC-3. The series is described as follows: cells. As to conditions: Homo sapiens, PC-3, 48 h.
Another series concerns IGROV1. The experiment in a line: cells. As to conditions: Homo sapiens, IGROV-1, 48 h.

Broadly, the GI50 is the concentration at which growth is held to half of that of the control. A lower GI50 goes with more potent growth inhibition. Turning to `Cc1cc(C)cc(-c2ccc3c(c2)[N+]([O-])=C2C3=C[C@@]34NC(=O)C5(CCCN5C3=O)CC4C2(C)C)c1` (some centres unmarked) [Biphenyl Analogue], the GI50 in the series on NCI-H226 stood at 199 nM; in the series with KM12 it was 257 nM; in the series on U251, 136 nM; in the series with UO-31, 190 nM; in the series with SR, 118 nM; with NCI-H460, 326 nM. The GI50 with K-562 amounted to 124 nM; in the series on HS578T it was 546 nM; with MALME-3M, 41.7 nM; in the series on MDA-MB-435 it was 166 nM; in the series on HOP-62, 1640 nM; with SN12C, 214 nM. The CC50 was 2.92 µM in the series with NCI-H226; 3.91 µM in the series with KM12; 547 nM in the series on U251; 2.76 µM with UO-31; greater than 100 µM in the series with K-562; greater than 100 µM with HS578T (read-out: LC50). The CC50 worked out at 1.5 µM in the series on MALME-3M, 1.41 µM in the series on MDA-MB-435, 6.74 µM in the series on HOP-62 and 2.52 µM in the series on SN12C.
As a reminder, the TGI is the concentration giving total growth inhibition. In the series on CAKI-1, `CN(C)c1cccc2c(S(=O)(=O)NCCCCCCCCCCOc3ccc4c(c3)[N+]([O-])=C3C4=C[C@@]45NC(=O)C6(CCCN6C4=O)CC5C3(C)C)cccc12` (some centres unmarked) [Dansyl Analogue] displayed a GI50 of 426 nM and a TGI of 2.79 µM. Moreover, the CC50 in the series with CAKI-1 (read-out: LC50 (the source's name)) worked out at 20.8 µM.
As to `[2H]On1c2c(c3ccc4c(c31)C=CC(C)(C)O4)C(OC([2H])([2H])[2H])[C@@]13NC(=O)C4(CCCN4C1=O)CC3C2(C)C` (some centres unmarked) [Deuterated Methanol Adduct], the GI50 in the series with RXF 393 is 283 nM; in the series on NCI-H226, 391 nM; in the series on KM12, 1270 nM; with U251, 382 nM; in the series on UO-31 it was 498 nM; with SR, 235 nM. Also, the GI50 in the series on SK-MEL-2 came to 901 nM; in the series with NCI-H460, 1800 nM; in the series with PC-3, 619 nM; in the series on K-562, 576 nM; in the series with IGROV1, 743 nM; in the series with HS578T, 492 nM. Also, the GI50 in the series with MALME-3M was found to be 174 nM; with MDA-MB-435 it was 395 nM; in the series on HOP-62 it was 2390 nM; with SN12C it was 1120 nM. Moreover, the CC50 was found to be 2050 nM in the series with RXF 393 (read-out: LC50); 4.12 µM with NCI-H226; 5.02 µM in the series with KM12; 3700 nM in the series on U251; 4.29 µM in the series on UO-31; 9.37 µM with SR (read-out: LC50). The CC50 with SK-MEL-2 (read-out: LC50) was 5.39 µM; in the series on NCI-H460 (read-out: LC50), 7.17 µM; in the series on PC-3 (read-out: LC50), 5.12 µM; in the series on K-562, greater than 100 µM; in the series with IGROV1 (read-out: LC50), 4.68 µM; in the series with MALME-3M it was 5.09 µM. In addition, the figures for the CC50 in the series with MDA-MB-435, in the series on HOP-62 and in the series on SN12C were 4.72 µM, 26.7 µM and 4.82 µM, respectively.

Source of the values: patent publication US20110105515A1, “TARGETING THE ONCOPROTEIN NUCLEOPHOSMIN” (President and Fellows of Harvard College, priority 2007, published 2011).
